Test results as given in PubChem BioAssay (NCI).
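In this assay, cells in 96-well plates receive the compound at five concentrations for 48 hours. Endpoints are linearly interpolated between the surrounding concentrations. GI50 marks 50% less growth. TGI marks complete inhibition of growth.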

Key:
Assay in all cases: NCI tumour cell line growth inhibition, 48 h
[1] = test system: 786-0 renal
[2] = test system: A498 renal
[3] = test system: A549 NSCLC
[4] = test system: ACHN renal
[5] = test system: BT-549 breast
[6] = test system: CAKI-1 renal
[7] = test system: CCRF-CEM leukemia
[8] = test system: COLO 205 colon
[9] = test system: DU-145 prostate
[10] = test system: EKVX NSCLC
[11] = test system: HCC-2998 colon
[12] = test system: HCT-116 colon
[13] = test system: HCT-15 colon
[14] = test system: HL-60(TB) leukemia
[15] = test system: HOP-62 NSCLC
[16] = test system: HOP-92 NSCLC
[17] = test system: HS 578T breast
[18] = test system: HT29 colon
[19] = test system: IGROV1 ovarian
[20] = test system: K-562 leukemia
[21] = test system: KM12 colon
[22] = test system: LOX IMVI melanoma
[23] = test system: M14 melanoma
[24] = test system: MALME-3M melanoma
[25] = test system: MCF7 breast
[26] = test system: MDA-MB-231 breast
[27] = test system: MDA-MB-435
[28] = test system: MDA-MB-468 breast
[29] = test system: MOLT-4 leukemia
[30] = test system: NCI-H226 lung
[31] = test system: NCI-H23 lung
[32] = test system: NCI-H460 lung
[33] = test system: NCI-H522 lung
[34] = test system: NCI/ADR-RES ovarian
[35] = test system: OVCAR-3 ovarian
[36] = test system: OVCAR-4 ovarian
[37] = test system: OVCAR-5 ovarian
[38] = test system: OVCAR-8 ovarian
[39] = test system: PC-3 prostate
[40] = test system: RXF 393 renal
[41] = test system: SF-268 CNS
[42] = test system: SF-295 CNS
[43] = test system: SF-539 CNS
[44] = test system: SK-MEL-28 melanoma
[45] = test system: SK-MEL-5 melanoma
[46] = test system: SK-OV-3 ovarian
[47] = test system: SN12C renal
[48] = test system: SNB-19 CNS
[49] = test system: SNB-75 CNS
[50] = test system: SR leukemia
[51] = test system: SW-620 colon
[52] = test system: T-47D breast
[53] = test system: TK-10 renal
[54] = test system: U251 CNS
[55] = test system: UACC-257 melanoma
[56] = test system: UACC-62 melanoma
[57] = test system: UO-31 renal

Structure (SMILES): CC[C@]12C=CCN3CC[C@@]4(c5ccc(OC)cc5N(C)[C@H]4[C@@](O)(C(=O)OC)[C@@H]1OC(=O)CCC[P+](c1ccc(OC)cc1)(c1ccc(OC)cc1)c1ccc(OC)cc1)[C@@H]32
- GI50 [1]: 1530 nM
- TGI [1]: 3370 nM
- GI50 [2]: 2020 nM
- TGI [2]: 5670 nM
- GI50 [3]: 591 nM
- TGI [3]: 4390 nM
- GI50 [4]: 2760 nM
- TGI [4]: 7890 nM
- GI50 [5]: 532 nM
- TGI [5]: 1350 nM
- GI50 [6]: 4360 nM
- TGI [6]: 9190 nM
- GI50 [7]: 582 nM
- TGI [7]: 2020 nM
- GI50 [8]: 192 nM
- TGI [8]: 369 nM
- GI50 [9]: 635 nM
- TGI [9]: 4340 nM
- GI50 [10]: 737 nM
- TGI [10]: 3350 nM
- GI50 [11]: 446 nM
- TGI [11]: 1570 nM
- GI50 [12]: 469 nM
- TGI [12]: 1660 nM
- GI50 [13]: 2510 nM
- TGI [13]: 7000 nM
- GI50 [14]: 237 nM
- TGI [14]: 800 nM
- GI50 [15]: 1040 nM
- TGI [15]: 2670 nM
- GI50 [16]: 279 nM
- TGI [16]: 1080 nM
- GI50 [17]: 1180 nM
- TGI [17]: 3970 nM
- GI50 [18]: 284 nM
- TGI [18]: 859 nM
- GI50 [19]: 455 nM
- TGI [19]: 1600 nM
- GI50 [20]: 556 nM
- TGI [20]: 2130 nM
- GI50 [21]: 464 nM
- TGI [21]: 1560 nM
- GI50 [22]: 490 nM
- TGI [22]: 1590 nM
- GI50 [23]: 638 nM
- TGI [23]: 1870 nM
- GI50 [24]: 224 nM
- TGI [24]: 536 nM
- GI50 [25]: 383 nM
- TGI [25]: 1430 nM
- GI50 [26]: 254 nM
- TGI [26]: 654 nM
- GI50 [27]: 381 nM
- TGI [27]: 1420 nM
- GI50 [28]: 166 nM
- TGI [28]: 491 nM
- GI50 [29]: 621 nM
- TGI [29]: 2380 nM
- GI50 [30]: 1430 nM
- TGI [30]: 3870 nM
- GI50 [31]: 472 nM
- TGI [31]: 1660 nM
- GI50 [32]: 666 nM
- TGI [32]: 2360 nM
- GI50 [33]: 334 nM
- TGI [33]: 1180 nM
- GI50 [34]: 18100 nM
- TGI [34]: 49700 nM
- GI50 [35]: 422 nM
- TGI [35]: 1570 nM
- GI50 [36]: 537 nM
- TGI [36]: 3440 nM
- GI50 [37]: 686 nM
- TGI [37]: 2210 nM
- GI50 [38]: 1420 nM
- TGI [38]: 3870 nM
- GI50 [39]: 414 nM
- TGI [39]: 2150 nM
- GI50 [40]: 362 nM
- TGI [40]: 1340 nM
- GI50 [41]: 318 nM
- TGI [41]: 1460 nM
- GI50 [42]: 1250 nM
- TGI [42]: 3030 nM
- GI50 [43]: 622 nM
- TGI [43]: 1670 nM
- GI50 [44]: 477 nM
- TGI [44]: 1640 nM
- GI50 [45]: 722 nM
- TGI [45]: 1870 nM
- GI50 [46]: 595 nM
- TGI [46]: 1680 nM
- GI50 [47]: 458 nM
- TGI [47]: 1510 nM
- GI50 [48]: 341 nM
- TGI [48]: 1350 nM
- GI50 [49]: 178 nM
- TGI [49]: 735 nM
- GI50 [50]: 397 nM
- TGI [50]: 1780 nM
- GI50 [51]: 557 nM
- TGI [51]: 2050 nM
- GI50 [52]: 309 nM
- TGI [52]: 1600 nM
- GI50 [53]: 1400 nM
- TGI [53]: 2870 nM
- GI50 [54]: 360 nM
- TGI [54]: 1370 nM
- GI50 [55]: 489 nM
- TGI [55]: 1760 nM
- GI50 [56]: 396 nM
- TGI [56]: 1170 nM
- GI50 [57]: 3090 nM
- TGI [57]: 15500 nM
